Four molecules from patent publication US20120232062A1, “AZAINDAZOLES TO TREAT FLAVIVIRIDAE VIRUS INFECTION” (EIGER BIOPHARMACEUTICALS, INC., priority 2009, published 2012) can be followed below.

One data set deals with T1, CYP 1A2 (Homo sapiens, UniProt P05177).
T1 construct: For human liver microsome solution, a stock solution (20 mg/mL (4×final)) is used; from tissue; host or cells: human liver microsomes
T1 sequence (P05177 1-516): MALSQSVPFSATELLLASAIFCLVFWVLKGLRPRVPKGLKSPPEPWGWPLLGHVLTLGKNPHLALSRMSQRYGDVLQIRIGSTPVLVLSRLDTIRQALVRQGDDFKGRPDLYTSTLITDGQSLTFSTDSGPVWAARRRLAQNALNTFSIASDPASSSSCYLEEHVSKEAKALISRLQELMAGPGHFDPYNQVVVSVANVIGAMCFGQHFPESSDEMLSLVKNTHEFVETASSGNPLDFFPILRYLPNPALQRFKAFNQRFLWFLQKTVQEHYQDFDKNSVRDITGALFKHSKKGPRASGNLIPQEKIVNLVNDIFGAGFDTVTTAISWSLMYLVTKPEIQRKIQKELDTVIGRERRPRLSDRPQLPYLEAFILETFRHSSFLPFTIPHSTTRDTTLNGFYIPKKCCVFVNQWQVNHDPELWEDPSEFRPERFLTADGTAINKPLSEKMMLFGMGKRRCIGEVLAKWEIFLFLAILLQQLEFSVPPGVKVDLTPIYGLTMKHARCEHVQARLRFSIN
Briefly: CYP inhibition testing, CYP 1A2. Format: in vitro ADME. Particulars: human liver microsomes; >75 = low level of inhibition. The protocol: (§1) Select compounds are tested for CYP inhibition against five different CYP enzymes: CYP 1A2, CYP 2C9, CYP 2C19, CYP 2D6, CYP 3A4. Individual CYP enzymes are incubated with corresponding substrates with no inhibitor (negative control). Individual CYP enzymes are then incubated with corresponding substrates in the presence of test compound. […] Values of 70>v, w, x, y, z>30 indicate moderate level of inhibition of the corresponding enzyme.
(§2) The following reagents are used: Sodium Phosphate, monobasic; Sodium Phosphate, dibasic; β-Nicotinamide Adenine Dinucleotide Phosphate-Reduced (NADPH), Roche; Milli-Q Water; 0.1 M Potassium phosphate buffer (K-buffer), pH 7.4. The following stock solutions are used. Stock A (136.5 g of monobasic potassium phosphate in 1 L of Milli-Q water (1.0 M)). Stock B (174.2 g of dibasic potassium phosphate in 1 L of Milli-Q water (1.0 M)). 40.5 mL of Stock B is mixed with 9.5 mL of Stock A, and the total volume brought near 500 mL with Milli-Q water to give 0.1 M potassium phosphate buffer. The buffer is titrated with KOH or H3PO4 to pH 7.4. To prepare a cofactor buffer (4×, 8 mM NADPH), 66.7 mg of NADPH tetrasodium salt is dissolved in 10 mL of K-buffer. For human liver microsome solution, a stock solution (20 mg/mL (4×final)) is used.
(§3) The following Positive control stock solutions are prepared: 0.3 mM α-Naphthoflavone (MW: 272.3, 0.0817 mg of α-Naphthoflavone in 1 mL DMSO), 10 mM Sulfaphenazole (MW: 314.4, 3.14 mg of sulfaphenazole in 1 mL DMSO) 100 mM Omeprazole (MW: 345.4, 34.54 mg of omeprazole in 1 mL DMSO), 2.5 mM Quinidine (MW: 324, 0.81 mg of quinidine in 1 mL DMSO), and 2.5 mM Ketoconazole (MW: 531.4, 1.33 mg of ketoconazole in 1 mL DMSO).
(§4) The following substrate stock solutions are prepared: 6 mM Phenacetin (MW: 179.22, 1.075 mg of phenacetin in 1 mL can), 10 mM Diclofenac (MW: 318.83, 3.18 mg of Diclofenac in 1 ml H2O), 35 mM S-Mephenyloin (MW: 218.25, 7.64 mg of s-mephenyloin in 1 mL ACN 10 mM Bufuralol (MW: 297.82, 2.98 mg of Bufuralol in 1 ml H2O), 1 mM Midazolam (MW: 325.77, 0.326 mg of midazolam in 1 mL can), and 10 mM Testosterone (MW: 288.42, 2.88 mg of Testosterone in 1 ml ACN.
(§5) Test compounds and reference compounds (positive control) are prepared in 0.2 mg/ml liver microsome solution. A 0.2 mg/ml liver microsome solution (2×final) is prepared from stock solution by adding 10 μL microsome stock solutions (20 mg/ml) in 990 μL K-buffer. 8 μL of 10 mM test compound stock solution (in DMSO or other solvent at various concentrations) is diluted with 12 μL ACN to make 4 mM solutions. 1:3 serial dilutions are performed using DMSO/ACN (40:60) from 4 mM solution further down seven concentration points (400×final): 4 mM, 1.33 mM, 0.44 mM, 0.148 mM, […], 0.0165 mM, 0.00549 mM, 0 mM. […]
(In general: Microsomes from liver hold many membrane-bound enzymes, among them those of drug oxidation.)

Another data set has as its target T2, CYP 2C19 (Homo sapiens, UniProt P33261).
T2 construct: For human liver microsome solution, a stock solution (20 mg/mL (4×final)) is used; from tissue; host or cells: human liver microsomes
Briefly: CYP inhibition testing, CYP 2C19. Format: in vitro ADME. As to conditions: human liver microsomes; >75 = low level of inhibition. The method, then: as §1, §2, §3, §4, §5

T2 sequence (P33261 whole entry): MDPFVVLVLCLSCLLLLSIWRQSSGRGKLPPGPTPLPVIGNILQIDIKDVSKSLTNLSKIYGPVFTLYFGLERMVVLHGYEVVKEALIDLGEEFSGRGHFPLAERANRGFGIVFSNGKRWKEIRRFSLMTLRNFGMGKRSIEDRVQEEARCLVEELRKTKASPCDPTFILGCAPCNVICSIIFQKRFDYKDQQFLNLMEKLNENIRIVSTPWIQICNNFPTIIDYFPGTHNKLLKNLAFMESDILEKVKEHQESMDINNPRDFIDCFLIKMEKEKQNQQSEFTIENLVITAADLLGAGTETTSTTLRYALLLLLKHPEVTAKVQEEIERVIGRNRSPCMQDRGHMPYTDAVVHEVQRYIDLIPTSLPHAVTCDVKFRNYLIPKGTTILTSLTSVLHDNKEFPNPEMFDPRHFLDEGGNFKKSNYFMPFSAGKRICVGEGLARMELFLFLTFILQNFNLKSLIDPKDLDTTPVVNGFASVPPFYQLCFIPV

On to `Cn1nc(C(=O)NC2CCNCC2)c2ccc(N3CCCCCC3)nc21.O=C(O)C(F)(F)F.O=C(O)C(F)(F)F` [compound 697], for which, on CYP 1A2, the “CYP (% negative controls) 1A2” value is listed as 97 % negative controls. Moreover, the “CYP (% negative controls) 2C19” value at CYP 2C19 is given as 78 % negative controls.
The corresponding values for `Cn1nc(CCCN2CCCC2)c2ccc(N3CCCCCCC3)nc21` [compound 1171] are 104 % negative controls and 72 % negative controls.
On the same counts, the results for `Cn1nc(C(=O)NC2CCN(CCN3CCCCC3)CC2)c2ccc(N3CCCCCC3)nc21` [compound 1047] are 98 % negative controls and 92 % negative controls.
The corresponding values for `CCC(CC)Oc1ccc2c(C(=O)NC3CCNCC3)n[nH]c2n1` [compound 726] are 102 % negative controls and 74 % negative controls.
